From PMC11203719, “Mts1 (S100A4) and Its Peptide Demonstrate Cytotoxic Activity in Complex with Tag7 (PGLYRP1) Peptide” (International Journal of Molecular Sciences, 2024)
“Also recorded” adds a separate entry of the source. No end group written: not given here.

Tests used:
Mts1 (S100A4) = target: T1, Mts1 (S100A4) (Homo sapiens, UniProt P26447); experiment: Microscale thermophoresis, binding to labeled Mts1
T1 construct: a functional fragment of the Tag7 protein (PGLYRP1) and a full-sized Mts1 protein (S100A4); His tag (from vector pQE-30; purified on HisTrap FF) (N); made in house; host or cells: Escherichia coli M15 (pREP4)
T1 sequence (P26447 whole entry, the tested form may be a part): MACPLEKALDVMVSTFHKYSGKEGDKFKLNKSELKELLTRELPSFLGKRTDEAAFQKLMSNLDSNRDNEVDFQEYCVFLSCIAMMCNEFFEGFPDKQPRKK
Protocol: To evaluate the protein–protein interaction of Mts1 with Tag7 and with peptides, 17.1, 17.1A, and 17.1B, a quantitative microscale thermophoresis method was used to reliably determine the parameters of the interaction of protein complexes.
To study the dissociation constant, purified Mts1 was fluorescently labeled using Alexa Fluor 633 (Invitrogen, Eugene, OR, USA) in accordance with the manufacturer’s protocol. Mts1 (200 nM) was preincubated for 20 min with Tag7-Mts1, 17.1-Mts1, 17.1A-Mts1, and 17.1B-Mts1 in the dark at room temperature in 16 different concentrations, obtained by sequential dilution. To study the dissociation constant of Tag7 with M7, Tag7 was fluorescently labeled using Alexa Fluor 488 (Invitrogen, Eugene, OR, USA) in accordance with the manufacturer’s protocol. Tag7 (200 nM) was preincubated for 20 min with M7 in the dark at room temperature in 16 different concentrations, obtained by sequential dilution. The samples were loaded into glass capillaries of Monolith NT Capillaries (NanoTemper Technologies GmbH, München, Germany) and analyzed by thermophoresis on a Monolith NT 115 nanotemperature apparatus (10% IR laser power). The signal quality was monitored using a NanoTemper Monolith device to detect possible ligand autofluorescence, deposition, aggregation, or ligand-induced changes in the photobleaching rate. The experiments were carried out in at least three repetitions and processed using affinity analysis software (MO Control v.1.6.1, NanoTemper Technologies GmbH, München, Germany).

Mts1 = experiment: Affinity chromatography on 17.1-Sepharose with Western blot for Mts1; assay type: binding, human; conditions: recombinant Mts1 100 ng, 17.1 immobilized on CNBr-activated Sepharose; eluted 0.25 M triethylamine; Mts1 eluted as tetramer
Protocol: In the previous section, we noted the competition between Hsp70 and Mts1 for the binding center of Tag7. We have shown that Hsp70 interacts with peptide 17.1, which is located at the C-terminal region of the polypeptide chain Tag7. […] The recombinant Mts1 protein (100 ng total protein, 0.1 mg/mL) was applied to CNBr-activated Sepharose with immobilized peptide 17.1. The bound proteins were eluted and analyzed using SDS-PAGE and a subsequent Western blot test with specific anti-Mts1 antibodies. It was shown that Mts1 is present in the eluate in the form of a tetramer (Figure 1).
A column with CNBr-activated Sepharose 4B (GE Healthcare, Chicago, IL, USA) conjugated with 17.1 was prepared as described in accordance with the manufacture’s protocol. The recombinant Mts1 protein was loaded into a column with 17.1-Sepharose 4B. Then, the material was extensively washed with PBS plus 0.5 M NaCl, followed by PBS, eluted with 0.25 M triethylamine, pH 12. The eluted material was resolved using 12% SDS-PAGE and applied to a nitro-cellulose membrane. […] The chemiluminescence was recorded using iBright (Thermo Fisher Scientific, Boston, MA, USA). […] Protein concentrations were quantified using a Bradford assay kit (Thermo Fisher Scientific, Carlsbad, CA, USA). […]

[1] = test system: TNFR1-positive tumor cells; conditions: cited from earlier work
Text: (§1) We investigated developing cytotoxic processes during TNFR1 activation and found two new proteins interacting with this receptor: the immune system regulator PGLYRP1 (Tag7) and DNA-hydrolyzing autoantibodies. […] For the manifestation of Tag7 cytotoxic action, the presence of a coactivator, stimulating cytotoxicity, is necessary. During antitumor studies, a cytotoxic complex released by human ... || Structural and functional analyses of Tag7 made it possible to localize the epitope of this protein necessary for interaction with TNFR1 and Hsp70. […] It was also possible to separate the activities of this bifunctional peptide.

TNFR1 = conditions: cited from earlier work; for inhibition of cytotoxic effect of TNFR1 ligands: ref [19]
Text: as §1

L929 cells = experiment: Cytotoxicity, L929 cells; assay type: cell-based; conditions: complexes of Mts1 with 17.1A, 17.1B or full-sized Tag7; L929 cells (Figure 2b), 24 h, n = 5
Hsp70 = conditions: ref [19]; cited from earlier work
Text: Structural and functional analyses of Tag7 made it possible to localize the epitope of this protein necessary for interaction with TNFR1 and Hsp70. […] It was also possible to separate the activities of this bifunctional peptide.

lymphocytes = conditions: ref [22]; cited from earlier work
Text: (§2) During a study on the anticancer effect of the Tag7-Hsp70 complex on metastatic cells, the second partner of the Tag7 protein was identified. Tag7 interacts with Mts1 (metastasin 1, S100A4), a member of the S-100 family involved in metastasis processes. Both proteins form the Tag7-Mts1 chemotactic complex.

[2] = test system: TNFR1 on the surface of HEK293T cells; experiment: Cross-linking (BS3) to TNFR1 on cell surface, anti-TNFR1 pull-down, Western blot; assay type: binding, human; conditions: 17.1-Mts1 at 1 nM, anti-TNFR1 beads
Protocol: We investigated the ability of peptide 17.1 to form a complex with Mts1 and TNFR1 on the cell surface. The 17.1-Mts1 complex was added to HEK293T cells with TNFR1s on their surface. After incubation, a crosslinking agent (BS^3) was added, forming covalent bonds between molecules located at a distance of less than 1 nm at the time of addition. Next, the cells were lysed, and membrane proteins were precipitated using anti-TNFR1 antibodies conjugated with magnetic beads. The obtained material was separated using SDS electrophoresis and detected using Western blotting with polyclonal antibodies to Mts1 or Tag7.
A column with CNBr-activated Sepharose 4B (GE Healthcare, Chicago, IL, USA) conjugated with 17.1 was prepared as described in accordance with the manufacture’s protocol. The recombinant Mts1 protein was loaded into a column with 17.1-Sepharose 4B. Then, the material was extensively washed with PBS plus 0.5 M NaCl, followed by PBS, eluted with 0.25 M triethylamine, pH 12. The eluted material was resolved using 12% SDS-PAGE and applied to a nitro-cellulose membrane. […] The chemiluminescence was recorded using iBright (Thermo Fisher Scientific, Boston, MA, USA). […] Protein concentrations were quantified using a Bradford assay kit (Thermo Fisher Scientific, Carlsbad, CA, USA). […]

Tag7-Hsp70 complex = conditions: excess of Mts1; ref [22]; cited from earlier work
Text: as §2

SNYVLKGHRDVQ [17.1]
affinity for Mts1 (in words) (Mts1 (S100A4)): highly specific
binding to Mts1 (Mts1): 17.1 binds to Mts
death of tumor cells in combination with Hsp70 ([1]; in combination with Hsp70, ref [19]): induces the death of tumor cells
inhibition of cytotoxic effect of TNFR1 ligands (TNFR1): inhibits the cytotoxic effect of TNFR1 ligands

Tag7: recombinant full-size Tag7 protein (PGLYRP1)
affinity for Mts1 (in words) (Mts1 (S100A4)): significantly higher apparent Kd
cytotoxic activity in complex with Mts1 (L929 cells): does not have a cytotoxic effect on cells; also recorded: does not form a cytotoxic complex with the Mts1 protein
inhibition of cytotoxic activity of TNF and other TNFR1 ligands (TNFR1; previous work, reference not clearly printed): acts as an inhibitor of the cytotoxic activity of TNF and other TNFR1 ligands

HRDVQRT [17.1B]
affinity for Mts1 (in words) (Mts1 (S100A4)): highly specific
affinity for Hsp70 (Hsp70): high affinity for Hsp70

RSNYVLKG [17.1A]
affinity for Mts1 (in words) (Mts1 (S100A4)): significantly higher apparent Kd; also recorded: low affinity
cytotoxic activity in complex with Mts1 (L929 cells): does not contribute to the appearance of cytotoxicity
inhibition of cytotoxic effect of TNFR1 ligands (TNFR1): responsible for binding to TNFR1 and inhibiting cytotoxicity

Tag7-Mts1: complex of full-sized Tag7 with Mts1
Kd (Mts1 (S100A4); first-named partner titrated (16 concentrations) to Alexa Fluor 633-labeled Mts1 (200 nM), 20 min, room temperature, at least three repetitions, mean ± SD): 9.21 ± 1.5 µM
cytotoxic activity ([1]; previous study, ref [22]): no cytotoxic activity
chemotactic activity (lymphocytes): induces the movement of lymphocytes along the concentration gradient of this complex

Mts1: recombinant human Mts1 (S100A4) protein
interaction with TNFR1 on cell surface [2]: binds to the TNFR1 receptor on the cell surface
displacement of Hsp70 from Tag7-Hsp70 complex (Tag7-Hsp70 complex): displaces Hsp70 from the Tag7-Hsp70 complex
